Reference: patent US20190216767A1, “TOPICAL THERAPY FOR THE TREATMENT OF SKIN KERATOSES USING NANOPARTICLES OF TAXANES” (DFB SORIA, LLC, priority 2017, published 2019)

Legend:
[1] = tested on: Göttingen minipigs; assay: Dermal toxicity study (GLP, topical daily for 28 days); type: in vivo; details: topical daily for 28 days, 0.3, 1.0 and 3%
Experimental: The GLP-compliant study was conducted in Göttingen minipigs to characterize the toxicity of the formulations applied topically to 10% body surface area daily for 28 days. […] Reversibility of findings was also evaluated following a 2-week recovery period. Parameters evaluated included clinical observations, mortality and moribundity checks, dermal scoring, body weight, food consumption, eye examinations, test site photographs, electrocardiology, clinical pathology, bioanalysis and toxicokinetic evaluation, organ weights, macroscopic pathology and histopathology. There were no formulation-related effects on survival, clinical signs, dermal irritation, body weights, body weight gains, food consumption, ophthalmic findings, or cardiology parameters.

[2] = Observation of paclitaxel nanoparticle crystal growth by light microscopy; type: physicochemical
[3] = in Aluminum sulfate 0.1-0.2% in water, @ 7 days, RT
[4] = in Ammonium lauryl sulfate 2% in water, @ 3 days, RT
[5] = in Benzalkonium chloride (50%) 2% in water, @ 7 days & 21 days, RT
[6] = in CARBOPOL ULTREZ 10 (with Ammonium hydroxide as neutralizer) 0.5% in water, @ 8 days & 21 days, RT
[7] = in Castor Oil 100%, @ 24 hrs & 9 days, RT
[8] = in Dimethicone, 1000 cSt 100%, @ 24 hrs & 6 days, RT
[9] = in FOMBLIN HC04 100%, @ 4, 7 & 13 days, RT
[10] = in Hydroxyethyl cellulose 1% in water, @ 7 days, RT
[11] = in Hydroxypropyl methylcellulose 1% in water, @ 3 days, RT
[12] = in Lecithin 1% in water, @ 24 hrs, RT
[13] = in Light Mineral Oil NF 100%, @ 3 days, RT & 40 C.
[14] = in Magnesium nitrate 5% in water, @ 3 days, RT
[15] = in Mannitol 5% in water, @ 7 days, RT
[16] = in Mineral Oil USP (heavy) 100%, @ 3 days, RT & 40 C.
[17] = in PEG 400 10% in water, @ 22 days, RT & 60 C.
[18] = in Poloxamer 188 2% in water, @ 7 days, RT
[19] = in Poloxamer 407 2% in water, @ 5 & 7 days, RT
[20] = in Polyoxyl 40 Hydrogenated Castor Oil (KOLLIPHOR RH40) 1% in water, @ 6 days, RT
[21] = in Polysorbate 80 0.5% in Saline, @ 7 days, RT & 60 C.
[22] = in Polysorbate 80 0.5% in water, @ 22 days, RT & 60 C.
[23] = in Povidone 1% in water, @ 7 days & 21 days, RT
[24] = in Proline 3% in water, @ 7 days, RT
[25] = in Purified Water 100%, @ 5 days, RT & 60 C.
[26] = in ST-Cyclomethicone 5 NF 100%, @ 24 hrs & 13 days, RT
[27] = in Saline 0.9% NaCl in water, @ 7 days, RT & 60 C.
[28] = in Sodium lauryl sulfate 2% in water, @ 7 days, RT
[29] = in Sodium phosphate monobasic 0.75% in water, @ 7 days, RT
[30] = in Sorbitol 5% in water, @ 7 days, RT
[31] = in Vitamin E TPGS 0.5% in water, @ 6 days, RT
[32] = in Zinc acetate […] in water, @ 7 days, RT

In the case of `CC(=O)O[C@H]1C(=O)[C@@]2(C)[C@H]([C@H](OC(=O)c3ccccc3)[C@]3(O)C[C@H](OC(=O)[C@H](O)[C@@H](NC(=O)c4ccccc4)c4ccccc4)C(C)=C1C3(C)C)[C@]1(OC(C)=O)CO[C@@H]1C[C@@H]2O` [Paclitaxel nanoparticles, paclitaxel], the “effect of the presence of the paclitaxel nanoparticles in the formulations on dermal irritation” value [1] was “negligible effect”, the “Crystal size (visual observation by light microscopy)” value (from here on “Crystal size”) [2, 3] was over 5 μm and the “Needle shaped crystals observed? (visual observation by light microscopy)” value (“Needle shaped crystals observed?” for short) [2, 3] was “Yes”. The “Crystal size” value [2, 4] was over 5 μm, the “Needle shaped crystals observed?” value [2, 4] was “Yes” and the “Crystal size” value [2, 5] was under 5 μm. For the same compound, the “Needle shaped crystals observed?” value [2, 5] was “No”, the “Crystal size” value [2, 6] was under 5 μm and the “Needle shaped crystals observed?” value [2, 6] was “No”. The “Crystal size” value [2, 7] was under 5 μm, the “Needle shaped crystals observed?” value [2, 7] was “No” and the “Crystal size” value [2, 8] was under 5 μm. For the same compound, the “Needle shaped crystals observed?” value [2, 8] was “No”, the “Crystal size” value [2, 9] was under 5 μm and the “Needle shaped crystals observed?” value [2, 9] was “No”. For the same compound, the “Crystal size” value [2, 10] was over 5 μm, the “Needle shaped crystals observed?” value [2, 10] was “Yes” and the “Crystal size” value [2, 11] was over 5 μm. The “Needle shaped crystals observed?” value [2, 11] was “Yes”, the “Crystal size” value [2, 12] was over 10 μm and the “Needle shaped crystals observed?” value [2, 12] was “Yes”. For the same compound, the “Crystal size” value [2, 13] was under 5 μm, the “Needle shaped crystals observed?” value [2, 13] was “No” and the “Crystal size” value [2, 14] was over 5 μm. The “Needle shaped crystals observed?” value [2, 14] was “Yes”, the “Crystal size” value [2, 15] was over 5 μm and the “Needle shaped crystals observed?” value [2, 15] was “Yes”. For the same compound, the “Crystal size” value [2, 16] was under 5 μm, the “Needle shaped crystals observed?” value [2, 16] was “No” and the “Crystal size” value [2, 17] was over 5 μm. For the same compound, the “Needle shaped crystals observed?” value [2, 17] was “Yes”, the “Crystal size” value [2, 18] was over 5 μm and the “Needle shaped crystals observed?” value [2, 18] was “Yes”. The “Crystal size” value [2, 19] was under 5 μm, the “Needle shaped crystals observed?” value [2, 19] was “No” and the “Crystal size” value [2, 20] was under 5 μm. The “Needle shaped crystals observed?” value [2, 20] was “Yes”, the “Crystal size” value [2, 21] was over 5 μm and the “Needle shaped crystals observed?” value [2, 21] was “Yes”. The “Crystal size” value [2, 22] was under 5 μm, the “Needle shaped crystals observed?” value [2, 22] was “Yes” and the “Crystal size” value [2, 23] was under 5 μm. For the same compound, the “Needle shaped crystals observed?” value [2, 23] was “Yes”, the “Crystal size” value [2, 24] was over 5 μm and the “Needle shaped crystals observed?” value [2, 24] was “Yes”. For the same compound, the “Crystal size” value [2, 25] was over 5 μm, the “Needle shaped crystals observed?” value [2, 25] was “Yes” and the “Crystal size” value [2, 26] was under 5 μm. For the same compound, the “Needle shaped crystals observed?” value [2, 26] was “No”, the “Crystal size” value [2, 27] was over 10 μm and the “Needle shaped crystals observed?” value [2, 27] was “Yes”. For the same compound, the “Crystal size” value [2, 28] was over 5 μm, the “Needle shaped crystals observed?” value [2, 28] was “Yes” and the “Crystal size” value [2, 29] was over 5 μm. For the same compound, the “Needle shaped crystals observed?” value [2, 29] was “Yes”, the “Crystal size” value [2, 30] was over 5 μm and the “Needle shaped crystals observed?” value [2, 30] was “Yes”. The “Crystal size” value [2, 31] was under 5 μm, the “Needle shaped crystals observed?” value [2, 31] was “Yes” and the “Crystal size” value [2, 32] was over 5 μm. For the same compound, the “Needle shaped crystals observed?” value [2, 32] was “Yes”, the “crystal growth of paclitaxel nanoparticles” value ([2]; in any of the hydrophobic carriers) was “did not grow” and the “crystal growth of paclitaxel nanoparticles” value ([2]; in aqueous solutions of benzalkonium chloride, CARBOPOL ULTREZ 10, or poloxamer 407) was “did not grow”.
